Common to all, as to type: cell-based
Assay [1] relates to Aβ42. As to the kind of experiment: Screening for γ-secretase-modulating activity, Method 2: Aβ42 Alphalisa on SKNBE2 cell supernatant. The note with it: Method 2, Table 3c, SKNBE2 cells carrying APP 695 wild type, overnight incubation. Here is the method:
(§1) Screening was carried out using SKNBE2 cells carrying the APP 695—wild type, grown in Dulbecco's Modified Eagle's Medium/Nutrient mixture F-12 (DMEM/NUT-mix F-12) (HAM) provided by Invitrogen (cat no. 10371-029) containing 5% Serum/Fe supplemented with 1% non-essential amino acids, 1-glutamine 2 mM, Hepes 15 mM, penicillin 50 U/ml (units/ml) en streptomycin 50 μg/ml. Cells were grown to near confluency.
(§2) The screening was performed using a modification of the assay as described in Citron et al (1997) Nature Medicine 3: 67. Briefly, cells were plated in a 384-well plate at 10^4 cells/well in Ultraculture (Lonza, BE12-725F) supplemented with 1% glutamine (Invitrogen, 25030-024), 1% non-essential amino acid (NEAA), penicillin 50 U/ml en streptomycin 50 μg/ml in the presence of test compound at different test concentrations. The cell/compound mixture was incubated overnight at 37° C., 5% CO2. The next day the media were assayed by two sandwich immuno-assays, for Aβ42 and Aβtotal.
(§3) Aβtotal and Aβ42 concentrations were quantified in the cell supernatant using the Aphalisa technology (Perkin Elmer). Alphalisa is a sandwich assay using biotinylated antibody attached to streptavidin coated donorbeads and antibody conjugated to acceptor beads. In the presence of antigen, the beads come into close proximity. The excitation of the donor beads provokes the release of singlet oxygen molecules that trigger a cascade of energy transfer in the acceptor beads, resulting in light emission. To quantify the amount of Aβ42 in the cell supernatant, monoclonal antibody specific to the C-terminus of Aβ42 (JRF/cAβ42/26) was coupled to the receptor beads and biotinylated antibody specific to the N-terminus of Aβ (JRF/AβN/25) was used to react with the donor beads. To quantify the amount of Aβtotal in the cell supernatant, monoclonal antibody specific to the N-terminus of Aβ (JRF/AβN/25) was coupled to the receptor beads and biotinylated antibody specific to the mid region of Aβ (biotinylated 4G8) was used to react with the donor beads.
(§4) To obtain the values reported in Table 3c, the data were calculated as percentage of the maximum amount of amyloid Beta 42 measured in the absence of the test compound. The sigmoidal dose response curves were analyzed using non-linear regression analysis with percentage of the control plotted against the log concentration of the compound. A 4-parameter equation was used to determine the IC50.
(In general: In Alpha technology, singlet oxygen from a donor bead excites a nearby acceptor bead.)

In assay [2] the test system is Aβtotal. The assay is described as follows: Screening for γ-secretase-modulating activity, Method 2: Aβtotal Alphalisa on SKNBE2 cell supernatant. The following applies: Method 2, Table 3c, SKNBE2 cells carrying APP 695 wild type, overnight incubation. Here is the method: as §1, §2, §3, §4
The test system of assay [3] is Aβ42. As to the kind of experiment: Screening for γ-secretase-modulating activity, Method 1: Aβ42 sandwich ELISA on SKNBE2 cell media. The following applies: SKNBE2 cells carrying APP 695 wild type. Here is the method: (§5) Screening was carried out using SKNBE2 cells carrying the APP 695—wild type, grown in Dulbecco's Modified Eagle's Medium/Nutrient mixture F-12 (DMEM/NUT-mix F-12) (HAM) provided by Gibco (cat no. 31330-38) containing 5% Serum/Fe supplemented with 1% non-essential amino acids. Cells were grown to near confluency.
(§6) The screening was performed using the assay as described in Citron et al (1997) Nature Medicine 3: 67. Briefly, cells were plated in a 96-well plate at about 10^5 cells/ml one day prior to addition of compounds. Compounds were added to the cells in Ultraculture (Lonza, BE12-725F) supplemented with 1% glutamine (Invitrogen, 25030-024) for 18 hours. The media were assayed by two sandwich ELISAs, for Aβ42 and Aβtotal. Toxicity of the compounds was assayed by WST-1 cell proliferation reagent (Roche, 1 644 807) according to the manufacturer's protocol.
To quantify the amount of Aβ42 in the cell supernatant, commercially available Enzyme-Linked-Immunosorbent-Assay (ELISA) kits were used (Innotest® β-Amyloid(1-42), Innogenetics N.V., Ghent, Belgium). The Aβ42 ELISA was performed essentially according to the manufacturer's protocol. Briefly, the standards (dilutions of synthetic Aβ1-42) were prepared in polypropylene Eppendorf with final concentrations of 8000 down to 3.9 pg/ml (1/2 dilution step). Samples, standards and blanks (100 μl) were added to the anti-Aβ42-coated plate supplied with the kit (the capture antibody selectively recognizes the C-terminal end of the antigen). The plate was allowed to incubate 3 h at 25° C. in order to allow formation of the antibody-amyloid complex. Following this incubation and subsequent wash steps a selective anti-Aβ-antibody conjugate (biotinylated 3D6) was added and incubated for a minimum of 1 hour in order to allow formation of the antibody-Amyloid-antibody-complex. After incubation and appropriate wash steps, a Streptavidine-Peroxidase-Conjugate was added, followed 30 minutes later by an addition of 3,3′,5,5′-tetramethylbenzidine (TMB)/peroxide mixture, resulting in the conversion of the substrate into a coloured product. This reaction was stopped by the addition of sulfuric acid (0.9 N) and the colour intensity was measured by means of photometry with an ELISA-reader with a 450 nm filter.
(§7) To obtain the values reported in Table 3a, the sigmoidal dose response curves were analysed by computerised curve-fitting, with percent of inhibition plotted against compound concentration. A 4-parameter equation (model 205) in XLfit was used to determine the IC50. The top and the bottom of the curve were fixed to 100 and 0, respectively, and the hill slope was fixed to 1. The IC50 represents the concentration of a compound that is required for inhibiting a biological effect by 50% (Here, it is the concentration where Aβ peptide level is reduced by 50%).
(§8) To obtain the values reported in Table 3b, the data were calculated as percentage of the maximum amount of amyloid Beta 42 measured in the absence of the test compound. The sigmoidal dose response curves were analyzed using non-linear regression analysis with percentage of the control plotted against the log concentration of the compound. A 4-parameter equation was used to determine the IC50. The values reported in Table 3b are averaged IC50 values.
(ELISA stands for enzyme-linked immunosorbent assay.)

Assay [4] deals with Aβtotal. As to the kind of experiment: Screening for γ-secretase-modulating activity, Method 1: Aβtotal sandwich ELISA on SKNBE2 cell media. The following applies: SKNBE2 cells carrying APP 695 wild type. Here is the method:
as §5, §6
To quantify the amount of Aβtotal in the cell supernatant, samples and standards were added to a 6E10-coated plate. The plate was allowed to incubate overnight at 4° C. in order to allow formation of the antibody-amyloid complex. Following this incubation and subsequent wash steps a selective anti-Aβ-antibody conjugate (biotinylated 4G8) was added and incubated for a minimum of 1 hour in order to allow formation of the antibody-Amyloid-antibody-complex. After incubation and appropriate wash steps, a Streptavidine-Peroxidase-Conjugate was added, followed 30 minutes later by an addition of Quanta Blu fluorogenic peroxidase substrate according to the manufacturer's instructions (Pierce Corp., Rockford, Ill.).
as §7, §8

[5] abbreviates: Table 3a, 18 hours, XLfit, top/bottom fixed to 100 and 0, hill slope 1.
Where [6] appears, read: Table 3b, non-linear regression of % of control, averaged IC50 values.
Where [7] appears, read: Homo sapiens, Table 3b, non-linear regression of % of control, averaged IC50 values.

Some results are limits rather than exact numbers.

For the compound `COc1cc(Nc2cccc3c2nc(C(C)c2ccc(Cl)cc2)n3C)ccc1-n1cnc(C)n1` (racemic) [Compound 122], the IC50 (in general, the concentration that inhibits the measured activity by half) is 372 nM in the assay with Aβ42 [1] and > 10000 nM in the assay with Aβtotal [2].
Consider `CCOc1cc(C)c(Nc2nc3c(Nc4ccc(-n5cnc(C)c5)c(OC)c4)cccc3n2C)cc1C(C)C` [Compound 60], for which the IC50 was 14 nM in the assay with Aβ42 [3] (setting [5]), 14 nM in the assay on Aβ42 [3] (setting [6]), > 1000 nM in the assay on Aβtotal [4] (setting [5]) and > 3000 nM in the assay with Aβtotal [4] (setting [6]).
Turning to `COc1cc(Nc2cccc3[nH]c(-c4ccc(F)cc4)nc23)ccc1-n1cnc(C)c1` [Compound 62], the IC50 is 114 nM in the assay with Aβ42 [3] (setting [5]), 195 nM in the assay on Aβ42 [3] (setting [6]), > 1000 nM with Aβtotal [4] (setting [5]) and > 3000 nM in the assay on Aβtotal [4] (setting [6]).
On the same counts, the results for `COc1cc(Nc2cccc3c2nc(-c2ccc(F)cc2)n3C)ccc1-n1ccnc1` [Compound 63] are 23 nM, 22 nM, > 1000 nM and > 3000 nM.
On the same counts, the results for `COc1cc(Nc2cccc3c2nc(-c2ccc(F)cc2)n3C)ccc1-n1cncn1` [Compound 64] are 48 nM, 49 nM, > 3000 nM and > 3000 nM.
For `Cn1c(-c2ccc(F)cc2)nc2c(Nc3ccc(-n4cncn4)c(F)c3)cccc21` [Compound 65] the same measures were 89 nM, 81 nM, > 3000 nM and > 3000 nM.
In the case of `COc1cc(Nc2cccc3c2nc(-c2ccc(F)cc2)n3C)ccc1-n1cnc(C#N)c1` [Compound 72], the IC50 in the assay with Aβ42 [3] (setting [5]) is 720 nM; with Aβ42 [3] (setting [6]), 724 nM; in the assay with Aβtotal [4] (setting [5]), > 3000 nM; in the assay on Aβtotal [4] (setting [6]) it was > 3000 nM.
As for `Cc1ncn(-c2ccc(Nc3cccc4c3nc(-c3ccc(F)cc3)n4C(C)(C)C)cc2)n1` [Compound 77], the IC50 in the assay on Aβ42 [3] (setting [5]) is 190 nM; in the assay with Aβ42 [3] (setting [6]), 191 nM; in the assay on Aβtotal [4] (setting [5]), > 3000 nM; in the assay with Aβtotal [4] (setting [6]) it was > 3000 nM.
For the compound `COc1cc(Nc2cccc3c2nc(-c2ccc(F)cc2)n3Cc2ccccc2)ccc1-n1cnc(C)c1` [Compound 79], the IC50 in the assay with Aβ42 [3] (setting [5]) is 24 nM; in the assay on Aβ42 [3] (setting [6]), 23 nM; in the assay on Aβtotal [4] (setting [5]), > 10000 nM; with Aβtotal [4] (setting [6]) it was > 10000 nM.
As to `COc1cc(Nc2cccc3c2nc(Cc2ccc(F)cc2)n3C)ccc1-n1cnc(C)c1` [Compound 81], the IC50 in the assay on Aβ42 [3] (setting [5]) was 21 nM; with Aβ42 [3] (setting [6]), 21 nM; in the assay with Aβtotal [4] (setting [5]), > 1000 nM; in the assay on Aβtotal [4] (setting [6]), > 1000 nM.
Turning to `COc1cc(-c2nc3c(Nc4ccc(-n5cncn5)c(F)c4)cccc3n2C)ccc1Cl` [Compound 83], the IC50 was 47 nM in the assay on Aβ42 [3] (setting [5]), 45 nM with Aβ42 [3] (setting [6]), > 3000 nM in the assay on Aβtotal [4] (setting [5]) and > 3000 nM in the assay on Aβtotal [4] (setting [6]).
Consider `COc1cc(Nc2cccc3c2nc(-c2cccc(OC)c2Cl)n3C)ccc1-n1cnc(C)n1` [Compound 84], for which the IC50 in the assay on Aβ42 [3] (setting [5]) is 141 nM; in the assay on Aβ42 [3] (setting [6]) it was 141 nM; in the assay on Aβtotal [4] (setting [5]) it was > 3000 nM; in the assay on Aβtotal [4] (setting [6]) it was > 3000 nM.
In the case of `Cc1ncnn1-c1ccc(Nc2cccc3c2nc(-c2ccc(F)cc2)n3C(C)C)cc1` [Compound 88], the IC50 in the assay on Aβ42 [3] (setting [5]) is 58 nM; with Aβ42 [3] (setting [6]), 72 nM; in the assay on Aβtotal [4] (setting [5]) it was > 3000 nM; in the assay with Aβtotal [4] (setting [6]), > 3000 nM.
Take `COc1cc(Nc2nccc3[nH]c(-c4ccc(F)cc4)nc23)ccc1-n1cnc(C)c1` [Compound 90]: the IC50 in the assay with Aβ42 [3] (setting [5]) is 39 nM; with Aβ42 [3] (setting [6]), 39 nM; in the assay with Aβtotal [4] (setting [5]), > 1000 nM; in the assay on Aβtotal [4] (setting [6]), > 5000 nM.
For the compound `COc1cc(Nc2nccc3c2nc(-c2ccc(F)cc2F)n3C)ccc1-n1cnc(C)n1` [Compound 98], the IC50 is 357 nM in the assay with Aβ42 [3] (setting [5]), 331 nM with Aβ42 [3] (setting [6]), > 3000 nM with Aβtotal [4] (setting [5]) and > 10000 nM in the assay with Aβtotal [4] (setting [6]).
For `COc1cc(Nc2cccc3c2nc(COc2ccccc2)n3C)ccc1-n1ncnc1C` [Compound 99], the IC50 was 436 nM with Aβ42 [3] (setting [5]), 427 nM in the assay on Aβ42 [3] (setting [6]), > 3000 nM in the assay with Aβtotal [4] (setting [5]) and > 10000 nM in the assay on Aβtotal [4] (setting [6]).
For `Cc1cc2c(nc(-c3ccc(F)cc3)n2C)c(Nc2ccc(-n3ncnc3C)c(F)c2)n1` [Compound 100] the same measures were 653 nM, 661 nM, > 3000 nM and > 10000 nM.
On the same counts, the results for `COc1cc(Nc2cccc3c2nc(CC(C)C)n3CC(F)(F)F)ccc1-n1cnc(C)n1` [Compound 105] are 129 nM, 129 nM, 2800 nM and 2500 nM.
Turning to `C=C(C)c1cc(Nc2ccc(-n3cnc(C)n3)c(OC)c2)c2nc(-c3ccc(F)cc3)n(C)c2n1` [Compound 109], the IC50 in the assay on Aβ42 [3] (setting [7]) was 32 nM; with Aβtotal [4] (setting [7]) it was > 3000 nM.
Regarding `COc1cc(Nc2cccc3c2nc(-c2ccc(F)cc2)n3C)ccc1-n1cnc(CO)c1` [Compound 118], the IC50 in the assay on Aβ42 [3] (setting [6]) is 69 nM; in the assay with Aβtotal [4] (setting [6]), > 3000 nM.
On the same counts, the results for `CCn1c(-c2cc(F)ccc2F)nc2c(Nc3ccc(-n4cnc(C)n4)c(OC)c3)cc(F)cc21` [Compound 127] are 56 nM and > 3000 nM.
On the same counts, the results for `COc1cc(Nc2cc(F)cc3c2nc(-c2ccccc2Cl)n3C)ccc1-n1cnc(C)n1` [Compound 128] are 11 nM and > 3000 nM.
On the same counts, the results for `COc1cc(Nc2nccc3c2nc(-c2ccccc2Cl)n3C)ccc1-n1cnc(C)n1` [Compound 145] are 209 nM and > 3000 nM.
Take `COc1cc(Nc2nc(Cl)cc3c2nc(-c2ccc(F)cc2)n3C)ccc1-n1cnc(C)n1` [Compound 156]: the IC50 with Aβ42 [3] (setting [6]) is 58 nM; in the assay on Aβtotal [4] (setting [6]), > 3000 nM.
